We go through three compounds from patent publication US8785451B2, “Compounds for the treatment of proliferative disorders” (Synta Pharmaceuticals Corp., priority 2006, dated 2014).

The test system of the experiment is inducible human Hsp70. Nature of the experiment: Hsp70 RNA induction by quantitative PCR analysis. It counts as cell-based. Conditions: Ramos B cells, 500 nM compound, 6 hours, Hsp70 RNA relative to gapdh; for fold induction at 0.5 µM: Homo sapiens, read-out: fold induction over DMSO; for % induction relative to Compound X: Compound X set to 100%. How it is done: The ability of the compounds of the invention to induce Hsp70 RNA induction by quantitative PCR analysis was examined. Ramos B cells were treated with 500 nM each compound for 6 hours and the RNA was isolated from the cells. Quantitative PCR was performed as described below:
Details for Quantitative PCR are as follows:
500 ng of RNA from each sample was used for cDNA synthesis using iScript cDNA Synthesis Kit (Biorad, Cat#170-8891). 1 ul of cDNA mixture was used with the iQ SYBR Green Supermix (Biorad, Cat#170-8882) to perform quantitative PCR in an iCycler machine (Biorad) using standard protocols. QPCR for each sample/time point was performed in duplicate. The following primers for inducible human Hsp70 and gapdh were used: […]
Ct values were obtained from the iCycler program and used in an equation (2^−ΔΔCT) for determining the amount of target relative to gapdh expression. This compares the relative expression of Hsp70 to the corresponding levels of gapdh in each sample. Duplicate wells were averaged. The amount of N-Malonyl-bis(N′-methyl-N′ thiobenzoylhydrazide) (Compound X) induction of Hsp70 was set to 100% and the percent of induction of Hsp70 by the compounds of the invention was determined relative to 100%.

As to `CN(/N=C/c1cccc(/C=N/N(C)C(=S)c2ccccc2)c1)C(=S)c1ccccc1` [Compound 17, (N′,N″E,N′,N″E)-N′,N″-(1,3-phenylenebis(methan-1-yl-1-ylidene))bis(N-methylbenzothiohydrazide)], the fold induction at 0.5 µM was 0.54 and the “% induction relative to Compound X” value is 0.20%.

For `CN(/N=C/c1cccc(/C=N/N(C)C(=S)c2ccccc2)n1)C(=S)c1ccccc1` [Compound 16, (N′,N″E,N′,N″E)-N′,N″-(pyridine-2,6-diylbis(methan-1-yl-1-ylidene))bis(N-methylbenzothiohydrazide)], the fold induction at 0.5 µM is 0.48 and the “% induction relative to Compound X” value is recorded as 0.18%.

On to `CN(/N=C1\CCC/C(=N\N(C)C(=S)c2ccccc2)C1)C(=S)c1ccccc1` [Compound 22, (N′,N″E,N′,N″E)-N′,N″-(cyclohexane-1,3-diylidene)bis(N-methylbenzothiohydrazide)], for which the fold induction at 0.5 µM is 0.16 and the “% induction relative to Compound X” value came to 0.06%.
